# Data as given in patent EP1131073B1, “USE OF STAUROSPORINE DERIVATIVES FOR TREATING OCULAR NEOVASCULAR DISEASES” (Novartis AG, priority 1998, dated 2000).
# Experiments:
# [1] = system: choroidal neovascularization; assay: Laser-induced rupture of Bruch's membrane, choroidal neovascularization in mice; assay type: in vivo, C57BL/6J mice; conditions: 400 mg/kg/day orally by gavage
# Description: C57BL/6J mice are treated in accordance with the Association for Research in Vision and Ophthalmology resolution for the treatment of animals. […] J Path, in press. Briefly, 4 to 5 week old male C57BL/6J mice are anesthetized with ketamine hydrochloride (100 mg/kg body weight) and the pupils are dilated with 1% tropicamide. Three bums of krypton laser photocoagulation (100 µm spot size, 0.1 seconds duration, 150 mW) are delivered to each retina using the slit lamp delivery system of a Coherent Model 920 Photocoagulator and a hand held cover slide as a contact lens. Bums are performed in the 9, 12, and 3 o'clock positions of the posterior pole of the retina. Production of a bubble at the time of laser, which indicates rupture of Bruch's membrane, is an important factor in obtaining CNV, so only mice in which a bubble is produced for all three bums are included. […] After 14 days, the mice are killed with an overdose of pentobarbital sodium, and their eyes are rapidly removed and frozen in optimal cutting temperature embedding compound (OCT). Frozen serial sections (10 µm) are cut through the entire extent of each burn and histochemically stained with biotinylated griffonia simplicifolia lectin B4 (Vector Laboratories, Burlingame, CA), which selectively binds to endothelial cells. Slides are incubated in methanol/H2O2 for 30 minutes at 4°C, washed with 0.05 M Tris-buffered saline, pH 7.4 (TBS), and incubated for 30 minutes in 10% normal swine serum. Slides are rinsed with 0.05M TBS and incubated 2 hours at 37°C with biotinylated lectin. After being rinsed with 0.05M TBS, slides are incubated with Streptavidin-phosphatase (Kirkegaard and Perry Laboratories, Cabin John, MD) for 30 minutes at room temperature. […]
# To perform quantitative assessments, lectin-stained sections are examined with an Axioskop microscope (Zeiss, Thornwood, NY) and images are digitized using a 3 CCD color video camera (IK-TU40A, Toshiba, Tokyo, Japan) and a frame grabber. […]
# [2] = system: retinal neovascularization; assay: Oxygen-induced ischemic retinopathy in mice, lectin-stained retinal sections with image analysis; assay type: in vivo, C57/BL6J mice; conditions: for clumps of neovascularization on the surface of the retina: compared to vehicle-treated control mice
# Description: Ischemic retinopathy is produced in C57/BL6J mice by a method described by Smith et al., Oxygen-induced Retinopathy in the Mouse, Invest. Ophthalmol. Vis. Sci. 35, 101-111 (1994). Seven-day-old mice and their mothers are placed in an airtight incubator and exposed to an atmosphere of 75 ± 3% oxygen for 5 days. Incubator temperature is maintained at 23 ± 2°C, and oxygen is measured every 8 hours with an oxygen analyzer. After 5 days, the mice are removed from the incubator, placed in room air, and subjected to a drug treatment. […] Vehicle (1% DMSO) or vehicle containing various concentrations of the drug (volume = 10 µl per gram body weight) is placed in the stomach by gavage.
# (§1) After 5 days of treatment, the mice are sacrificed, eyes are rapidly removed and frozen in optimum cutting temperature embedding compound (OCT; Miles Diagnostics, Elkhart, IN) or fixed in 10% phosphate-buffered formalin and embedded in paraffin. Adult C57BL6J mice are also treated by gavage with the drug or vehicle and after 5 days, they are sacrificed and their eyes are processed for frozen or paraffin sections.
# Slides are incubated in methanol/H2O2 for 10 minutes at 4°C, washed with 0.05 M Tris-buffered saline, pH 7.6 (TBS), and incubated for 30 minutes in 10% normal porcine serum. Slides are incubated 2 hours at room temperature with biotinylated lectin and after rinsing with 0.05M TBS, they are incubated with avidin coupled to peroxidase (Vector Laboratories) for 45 minutes at room temperature. After being washed for 10 minutes with 0.05 M TBS, slides are incubated with diaminobenzidine to give a brown reaction product. Some slides are counterstained with hematoxyln and all were mounted with Cytoseal.
# To perform quantitative assessments, 10 µm serial sections are cut through half of each eye and sections roughly 50-60 µm apart are stained with lectin, providing 13 sections per eye for analysis. Lectin-stained sections are examined with an Axioskop microscope (Zeiss, Thornwood, NY) and images are digitized using a 3 CCD color video camera (IK-TU40A, Toshiba, Tokyo, Japan) and a frame grabber. Image-Pro Plus software (Media Cybernetics, Silver Spring, MD) is used to delineate lectin-stained cells on the surface of the retina and their area is measured. The mean of the 13 measurements from each eye is used as a single experimental value.
# [3] = system: endothelial cells of mature vessels; assay: Effect on mature retinal vessels of adult mice, endothelial staining with image analysis; assay type: in vivo, Adult C57BL6J mice; conditions: 600 mg/kg by gavage once a day for 5 days
# Description: as §1
# [4] = system: retinal vascular development; assay: Retinal vascular development in neonatal mice, fluorescein-dextran perfused retinal flat mounts; assay type: in vivo, newborn C57/BL6J mice; conditions: 100 mg/kg daily subcutaneous
# Description: Litters of newborn C57/BL6J mice (neonatal mice) are divided into treatment and control groups which received daily subcutaneous injections of 100 mg/kg of the drug or vehicle, respectively. At 7 or 10 days of age, the mice are anesthetized with ether, and perfused with 1 ml of phosphate-buffered saline containing 50 mg/ml of fluorescein-labeled dextran (2x10^6 average mw, Sigma, St. Louis, MO) as described by Tobe et al., Evolution of Neovascularization in Mice with Overexpression of VEGF in Photoreceptors, Invest. Ophthalmol. Vis. Sci. 39, 180-188 (1998). The eyes are removed and fixed for 1 hour in 10% phosphate-buffered formalin. The cornea and lens are removed and the entire retina is carefully dissected from the eyecup. Radially cuts are made from the edge of the retina to the equator in all 4 quadrants, and the retina is flat-mounted in Aquamount with photoreceptors facing upward. The flat mounts are examined by fluorescence microscopy, and the images are digitized using a 3 CCD color video camera and a frame grabber. Image-Pro™ Plus is used to measure the distance from the center of the optic nerve to the leading front of developing retinal vessels in each quadrant and the mean is used as a single experimental value.
# [5] = 300 mg/kg twice a day by gavage
smiles,measurement,setting,value
"CO[C@@H]1[C@H](N(C)C(=O)c2ccccc2)C[C@H]2O[C@]1(C)n1c3ccccc3c3c4c(c5c6ccccc6n2c5c31)C(=O)NC4 [NBS, N-benzoyl-staurosporine]",integrated area of lectin staining per lesion,"[1]; 14 days, vehicle alone 0.0695621 ± 0.0073960 mm^2, p=0.004",0.009018 ± 0.001754 mm^2
same,appearance of overlying retinal vessels,[1]; two weeks after laser,appear normal
same,choroidal neovascularization at the site of each laser-induced rupture of Bruch's membrane,[1]; two weeks after laser,very little if any
same,endothelial cell staining on and in the retinas (image analysis),"[2]; 60 mg/kg once a day, compared to vehicle-treated mice",significantly less
same,endothelial staining within the retina,[2]; 60 mg/kg twice a day by gavage,some decrease
same,clumps of neovascularization on the surface of the retina,[2]; 60 mg/kg twice a day by gavage,less than clumps in the retina of the vehicle-treated control mice
same,endothelial staining within the retina,[2]; [5],some decrease
same,clumps of neovascularization on the surface of the retina,[2]; [5],less than clumps in the retina of the vehicle-treated control mice
same,endothelial cell staining in the inner nuclear layer and outer plexiform layer,[2]; 600 mg/kg once a day for 5 days,striking absence
same,endothelial cell staining on the surface and within the retina,"[2]; 600 mg/kg once a day for 5 days by gavage, compared to vehicle-treated mice",dramatic decrease
same,endothelial cell staining within the retina,"[2]; 600 mg/kg once a day for 5 days, compared to nonischemic mice",less than that of the nonischemic mice
same,endothelial cell staining on and in the retinas (image analysis),"[2]; 600 mg/kg once a day, compared to vehicle-treated mice",significantly less
same,toxicity to endothelial cells of mature vessels,[3],not toxic
same,total area of endothelial staining in the retina or the appearance of retinal vessels,[3]; compared to vehicle-treated mice,no difference
same,extension of retinal vessels,[4]; at 7 days of age,only extend slightly more than halfway to the periphery
same,extension of superficial capillary bed,[4]; at 10 days of age,has not yet reached the edge of the retina
